Test results as given in patent US7030251B2, “Modifications of the trometamol salt of R-thioctic acid as well as a process for their production” (Viatris GmbH & Co KG, priority 2001, dated 2006).
Counter-ions that a name gives are not always drawn.

Assay: Angle of repose α as a measure of flowability and pourability
Format: physicochemical
Conditions: determined according to R. Voigt, Lehrbuch der pharmazeutischen Technologie, 3rd Edition 1979, p. 165
From the text: The angle of repose α of the modifications as a measure of the flowability and pourability is likewise different: [table]

Angle of Repose α [°] | Structure (SMILES)
46 | O=C(O)CCCC[C@@H]1CCSS1 [Modification A, trometamol salt of R-thioctic acid]
32 | O=C(O)CCCC[C@@H]1CCSS1 [Modification B, trometamol salt of R-thioctic acid]
34 | O=C(O)CCCC[C@@H]1CCSS1 [Modification mixture A/B = 1:1, trometamol salt of R-thioctic acid]
